Here are results for 1 compound from US20230181719A1, “NGR CONJUGATES AND USES THEREOF” (OSPEDALE SAN RAFFAELE S.R.L., priority 2020, published 2023).

Positions of bridges follow the written chain, without caps; N, C: chain ends. Residues, ends and D or L forms follow the SMILES beside them. Where only a bound is given, the exact number is not on record here.

In one series the target is T1, CD13 (aminopeptidase N) (Homo sapiens, UniProt P15144).
T1 construct: histidine tag
Description: CD13 enzyme kinetics inhibition assay (L-alanine p-nitroanilide substrate). The following applies: in different experimental conditions. It counts as biochemical. The text has this:
FIG. 10. The peptide SCNGRCGVRY (SEQ ID NO: 3) inhibits CD13 enzymatic activity more efficiently than CNGRCGVRY (SEQ ID NO:4) and acetylated-CNGRCGVRY. A) Steady state kinetic analysis of CD13 in the presence of various amounts of L-alanine p-nitroanilide substrate and SCNGRCGVRY (SEQ ID NO: 3), CNGRCGVRY (SEQ ID NO:4), or acetylated-CNGRCGVRY (ac-CNGRCGVRY) (SEQ ID NO:42). A representative plot of 3-4 independent experiments, showing the initial velocity (V0) versus substrate concentration (mean ± SE of four technical replicates), is shown. The assays were performed with recombinant human histidine-tagged CD13 (200-300 ng/ml) in 60 mM potassium phosphate buffer, pH 7.4, at room temperature. The kinetic of p-nitroanilide formation was monitored spectrophotometrically (A405 nm) for 5-10 min. The inhibitory constant (Ki) reported in each plot is the result of the 3-4 independent experiments (mean ± SE). B) Double reciprocal plots of the experiments reported in panel A.
To rule out the possibility that the addition of the serine residue to the N-terminus of NGR-TNF abrogates or reduces its affinity for CD13 inventors performed enzyme kinetics inhibition assays with CD13 (aminopeptidase N) and SCNGRCGVRY (SEQ ID NO: 3), CNGRCGVRY (SEQ ID NO:4) or acetyl-CNGRCGVRY (corresponding to the N-terminal region of human S-NGR-TNF and NGR-TNF).

Series [1] can be described thus: Peptide deamidation stability upon incubation at 37° C., by mass spectrometry. It counts as physicochemical. Conditions: after 32 h at 37° C. in PBS, pH 7.4. The protocol:
FIG. 11. The peptide SCNGRCGVRY (SEQ ID NO: 3) has a lower propensity to deamidate than CNGRCGVRY (SEQ ID NO:4) in a physiological buffer at […], but not in ammonium bicarbonate buffer at pH 8.5. A and B) MS analysis of SCNGRCGVRY (SEQ ID NO: 3) and CNGRCGVRY (SEQ ID NO:4) after incubation at 37° C. for the indicated time in 50 mM sodium phosphate buffer, pH 7.4 (PBS) or 0.1 M ammonium bicarbonate buffer, pH 8.5 (Ambic). The values +0, + 1, -17 reported in the plot correspond to the difference between the observed and the expected molecular mass of peptides expressed in daltons. MS analysis was performed using the LTQ-Orbitrap mass spectrometer (Thermo Scientific).
To assess whether the addition of the serine residue to CNGRCG (SEQ ID NO:1) might affect its deamidation propensity inventors synthetized the SCNGRCGVRY (SEQ ID NO: 3) and CNGRCGVRY (SEQ ID NO:4) peptides and studied their stability upon incubation at 37° C. in PBS, pH 7.4, by mass spectrometry.
A similar experiment was then performed with peptides in 0.1 M ammonium bicarbonate, pH 8.5, a condition known to force Asn deamidation (Curnis et al. 2006). […] Furthermore, the succinimide-derivative of S-NGR-TNF, when formed, is more prone to hydrolysis.

The target of another series is α5β1 (Homo sapiens, UniProt P05556+P08648). Description: Competitive binding of acetyl-CisoDGRCG/streptavidin-peroxidase to integrin-coated microtiterplates. Conditions: mean ± SE. The text has this:
(§1) To assess whether the isoDGR derivative of S-NGR-TNF and NGR-TNF targeting domains can recognize integrins with similar affinities inventors then analysed the binding of SCisoDGRCGVRY (SEQ ID NO: 17), CisoDGRCGVRY and acetyl-CisoDGRCGVRY to αvβ3, αvβ5, αvβ6 αvβ8 and α5β1 integrins using a competitive binding assay previously described (Curnis et al. 2010). […] As expected […] (SEQ ID NO: 3) and […] […] Considering that human NGR-TNF contains acetylated and non-acetylated forms and that both CNGRC (SEQ ID NO:5) and acetyl-CNGRC can undergo deamidation (Curnis et al. 2010), inventors can conclude that the isoDGR derivative of S-NGR-TNF, if formed, behave in a manner similar to those of the isoDGR derivatives of NGR-TNF in terms of integrin recognition.

The target of a further series is αvβ8 (Homo sapiens, UniProt P06756+P26012). Described as above. Conditions: mean ± SE.
Source text: as §1

The target in another series is αvβ5 (Homo sapiens, UniProt P06756+P18084). Described as above. The following applies: mean ± SE.
Source text: as §1

Another series addresses αvβ6 (Homo sapiens, UniProt P06756+P18564). The series is described as above. The following applies: mean ± SE.
Source text: as §1

The target in the next series is αvβ3 (Homo sapiens, UniProt P05106+P06756). The description is as above.
Source text: as §1

The term Ki denotes a dissociation constant, usually derived from enzyme kinetics or from competition with a known ligand. Consider `CC(C)[C@H](NC(=O)CNC(=O)[C@@H]1CSSC[C@H](NC(=O)[C@@H](N)CO)C(=O)N[C@@H](CC(N)=O)C(=O)NCC(=O)N[C@@H](CCCNC(=N)N)C(=O)N1)C(=O)N[C@@H](CCCNC(=N)N)C(=O)N[C@@H](Cc1ccc(O)cc1)C(=O)O` [SCNGRCGVRY, SCNGRCGVRY (SEQ ID NO: 3)] (H-SCNGRCGVRY-OH; disulfide 2-6; N-terminus and C-terminus assumed), for which the “Ki value for CD13 lower than that of CNGRCGVRY” value on CD13 (aminopeptidase N) is 3-5 fold. Moreover, the “+1 Da deamidation product (DGR/isoDGR)” value in series [1] is on record as “observed”. Also, the “-17 Da form still present” value in series [1] is on record as “not”. Moreover, the Ki at α5β1, on αvβ8, at αvβ5, at αvβ6 and on αvβ3 (mean ± SE) was greater than 10 µM in each case. Further, at αvβ3 (αvβ3, αvβ5, αvβ6, αvβ8 and α5β1 (all integrins)), the affinity for integrins entry is on record as “no or very low affinity”.
